Data as given in US20110263629A1, “AMIDES OF DIAZABICYCLOOCTANES AND USES THEREOF” (Targacept, Inc., priority 2008, published 2011).

Biological target: T1, human α4β2 nAChR subtype (Homo sapiens, UniProt P17787+P43681)
T1 construct: expressed in transfected cells; host or cells: SH-EP1 clonal cells expressing human α4β2
Experiment: Radioligand binding ([3H]nicotine) at human α4β2 nAChR, SH-EP1/human α4β2 clonal cell membranes
Details: SH-EP1/human α4β2 cell membranes, 5 nM [3H]nicotine; read-out: Human α4β2 Ki
Description: Preparation of membranes from SH-EP1/human α4β2 clonal cells: Cell pellets from 40 150 mm culture dishes were pooled, and homogenized by Polytron (Kinematica GmbH, Switzerland) in 20 milliliters of ice-cold preparative buffer. The homogenate was centrifuged at 48,000 g for 20 minutes at 4° C. The resulting pellet was re-suspended in 20 mL of ice-cold preparative buffer and stored at −20° C.
(§1) On the day of the assay, the frozen membranes were thawed and spun at 48,000×g for 20 min. The supernatant was decanted and discarded. The pellet was resuspended in Dulbecco's phosphate buffered saline (PBS, Life Technologies) pH 7.4 and homogenized with the Polytron for 6 seconds. Protein concentrations were determined using a Pierce BCA Protein Assay Kit, with bovine serum albumin as the standard (Pierce Chemical Company, Rockford, Ill.).
(§2) Incubation was terminated by rapid filtration on a multi-manifold tissue harvester (Brandel, Gaithersburg, Md.) using GF/B filters presoaked in 0.33% polyethyleneimine (w/v) to reduce non-specific binding. Tissue was rinsed 3 times in PBS, pH 7.4. Scintillation fluid was added to filters containing the washed tissue and allowed to equilibrate. Filters were then counted to determine radioactivity bound to the membranes by liquid scintillation counting (2200CA Tri-Carb LSC, Packard Instruments, 50% efficiency or Wallac Trilux 1450 MicroBeta, 40% efficiency, Perkin Elmer).
(§3) Data were expressed as disintegrations per minute (DPMs). Within each assay, each point had 2-3 replicates. The replicates for each point were averaged and plotted against the log of the drug concentration. IC50, which is the concentration of the compound that produces 50% inhibition of binding, was determined by least squares non-linear regression. Ki values were calculated using the Cheng-Prussof equation (1973): […]

T1 sequence (P43681 29-627 limits assumed): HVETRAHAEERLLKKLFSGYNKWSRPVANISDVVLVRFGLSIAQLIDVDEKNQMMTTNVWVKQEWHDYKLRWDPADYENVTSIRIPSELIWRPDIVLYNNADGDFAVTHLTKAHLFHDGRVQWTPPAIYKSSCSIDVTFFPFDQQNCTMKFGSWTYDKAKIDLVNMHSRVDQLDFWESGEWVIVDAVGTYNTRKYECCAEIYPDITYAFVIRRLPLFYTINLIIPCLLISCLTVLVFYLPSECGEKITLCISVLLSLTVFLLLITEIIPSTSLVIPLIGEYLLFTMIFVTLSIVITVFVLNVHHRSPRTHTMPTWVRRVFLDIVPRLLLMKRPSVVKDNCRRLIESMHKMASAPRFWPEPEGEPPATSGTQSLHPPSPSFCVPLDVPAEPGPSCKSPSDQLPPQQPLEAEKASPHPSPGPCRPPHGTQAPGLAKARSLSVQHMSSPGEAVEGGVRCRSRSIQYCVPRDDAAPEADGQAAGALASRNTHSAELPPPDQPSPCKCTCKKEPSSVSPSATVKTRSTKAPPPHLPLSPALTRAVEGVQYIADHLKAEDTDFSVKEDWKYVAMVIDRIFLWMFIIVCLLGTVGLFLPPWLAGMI
T1 sequence (P17787 26-502): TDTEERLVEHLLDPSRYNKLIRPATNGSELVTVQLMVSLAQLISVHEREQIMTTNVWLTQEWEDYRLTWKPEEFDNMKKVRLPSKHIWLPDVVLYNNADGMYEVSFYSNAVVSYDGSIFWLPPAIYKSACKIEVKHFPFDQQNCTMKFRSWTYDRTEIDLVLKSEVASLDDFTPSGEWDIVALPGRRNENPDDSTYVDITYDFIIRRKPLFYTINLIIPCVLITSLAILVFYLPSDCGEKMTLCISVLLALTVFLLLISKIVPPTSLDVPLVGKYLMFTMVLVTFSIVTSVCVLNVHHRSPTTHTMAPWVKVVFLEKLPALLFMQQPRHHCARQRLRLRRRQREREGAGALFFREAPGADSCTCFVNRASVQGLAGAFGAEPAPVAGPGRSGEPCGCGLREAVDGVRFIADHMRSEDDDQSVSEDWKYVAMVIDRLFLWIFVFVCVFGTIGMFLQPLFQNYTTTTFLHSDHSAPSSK

Row | Structure (SMILES) | Ki
1 | O=C(C1CC=CC1)N1C[C@@H]2CN[C@@H](C2)C1 | 420 nM

Same assay, conditions: read-out: Human α4β2 Ki

Row | Structure (SMILES) | Ki
2 | O=C(C1CC=CC1)N1CC2CNC(C2)C1 (centres unmarked) | 13 nM
3 | O=C(C1CC1)N1CC2CNC(C2)C1 (centres unmarked) | 1.5 nM
4 | O=C(N1CC2CNC(C2)C1)C(F)(F)F (centres unmarked) | 2100 nM
5 | O=C(C1CC1)N1C[C@@H]2CN[C@@H](C2)C1 | 7.3 nM
6 | O=C(C1CC1)N1C[C@H]2CN[C@H](C2)C1 | 0.8 nM
7 | O=C(C1CC=CC1)N1C[C@H]2CN[C@H](C2)C1 | 4.4 nM
8 | O=C(C1CCC1)N1C[C@@H]2CN[C@@H](C2)C1 | 13 nM
9 | O=C(C1CCC1)N1C[C@H]2CN[C@H](C2)C1 | 1.6 nM
10 | CCC(=O)N1C[C@@H]2CN[C@@H](C2)C1 | 24 nM
11 | CCCC(=O)N1C[C@@H]2CN[C@@H](C2)C1 | 18 nM
12 | CC(C)C(=O)N1C[C@@H]2CN[C@@H](C2)C1 | 380 nM
13 | O=C(C1CCCC1)N1C[C@@H]2CN[C@@H](C2)C1 | 160 nM
14 | CC1CC1C(=O)N1C[C@@H]2CN[C@@H](C2)C1 (some centres unmarked) | 6.8 nM
15 | O=C(C1CC1(F)F)N1C[C@@H]2CN[C@@H](C2)C1 (some centres unmarked) | 11 nM
16 | CCOC(=O)N1C[C@H]2CN[C@H](C2)C1 | 15 nM
17 | O=C(C1C[C@@H]1F)N1CC2CNC(C2)C1 (some centres unmarked) | 14 nM
18 | O=C(C1C[C@H]1F)N1CC2CNC(C2)C1 (some centres unmarked) | 11 nM
19 | O=C(CCF)N1C[C@@H]2CN[C@@H](C2)C1 | 27 nM
20 | O=C(C1CC=CC1)N1CC2CNCC1C2 (centres unmarked) | 21 nM
21 | CCOC(=O)N1C[C@@H]2CNC[C@H]1C2 | 78 nM
22 | O=C(C1CC1)C1N[C@H]2CNC[C@@H]1C2 (some centres unmarked) | 480 nM
23 | O=C([C@H]1C[C@H]1F)N1C[C@H]2CNC[C@@H]1C2 | 68 nM
24 | O=C(C1CCC1)N1C[C@H]2CNC[C@@H]1C2 | 180 nM
25 | CC(C)C(=O)N1C[C@H]2CNC[C@@H]1C2 | 770 nM
26 | O=C(CCF)N1C[C@H]2CNC[C@@H]1C2 | 2400 nM

Biological target: T2, rat α4β2 nAChR subtype (Rattus norvegicus, UniProt P09483+P12390)
T2 construct: Preparation of membranes from rat cortex; from tissue; host or cells: rat cerebral cortex membranes
T2 sequence (P09483 31-630): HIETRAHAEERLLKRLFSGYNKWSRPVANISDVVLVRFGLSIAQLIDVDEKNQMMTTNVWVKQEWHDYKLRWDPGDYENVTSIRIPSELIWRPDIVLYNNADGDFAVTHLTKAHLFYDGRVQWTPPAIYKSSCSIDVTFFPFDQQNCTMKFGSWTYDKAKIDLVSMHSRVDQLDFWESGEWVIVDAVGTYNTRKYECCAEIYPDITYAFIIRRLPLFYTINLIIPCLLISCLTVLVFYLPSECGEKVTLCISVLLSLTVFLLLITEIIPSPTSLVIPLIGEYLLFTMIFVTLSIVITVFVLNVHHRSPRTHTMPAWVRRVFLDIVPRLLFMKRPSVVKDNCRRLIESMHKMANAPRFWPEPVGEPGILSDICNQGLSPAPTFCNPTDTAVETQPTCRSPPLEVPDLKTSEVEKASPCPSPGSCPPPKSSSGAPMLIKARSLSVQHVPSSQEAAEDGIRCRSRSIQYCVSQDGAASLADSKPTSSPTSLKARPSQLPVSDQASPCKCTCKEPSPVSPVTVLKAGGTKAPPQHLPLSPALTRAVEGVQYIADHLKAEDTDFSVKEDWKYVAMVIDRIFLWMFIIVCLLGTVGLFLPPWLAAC
T2 sequence (P12390 25-500): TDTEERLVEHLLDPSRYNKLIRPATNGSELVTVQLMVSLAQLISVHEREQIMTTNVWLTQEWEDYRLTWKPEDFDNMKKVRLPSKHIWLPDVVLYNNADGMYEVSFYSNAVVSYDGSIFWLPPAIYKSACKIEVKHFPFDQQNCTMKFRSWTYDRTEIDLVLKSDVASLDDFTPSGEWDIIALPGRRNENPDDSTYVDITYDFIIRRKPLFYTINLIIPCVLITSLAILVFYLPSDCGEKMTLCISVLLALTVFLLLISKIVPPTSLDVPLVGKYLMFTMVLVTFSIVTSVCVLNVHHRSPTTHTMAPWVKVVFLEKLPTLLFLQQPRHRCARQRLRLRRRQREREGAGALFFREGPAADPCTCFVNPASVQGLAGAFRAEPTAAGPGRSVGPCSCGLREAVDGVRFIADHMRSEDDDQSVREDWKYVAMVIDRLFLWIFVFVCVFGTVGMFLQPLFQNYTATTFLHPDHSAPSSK
Experiment: Radioligand binding ([3H]nicotine) at rat α4β2 nAChR, rat cortex membranes
Details: rat cortex membranes, 5 nM [3H]nicotine; read-out: Rat α4β2 Ki
Description: (§4) Preparation of membranes from rat cortex: Rats (female, Sprague-Dawley), weighing 150-250 g, were maintained on a 12 h light/dark cycle and were allowed free access to water and food supplied by PMI Nutrition International, Inc. Animals were anesthetized with 70% CO2, and then decapitated. Brains were removed and placed on an ice-cold platform. The cerebral cortex was removed and placed in 20 volumes (weight:volume) of ice-cold preparative buffer (137 mM NaCl, 10.7 mM KCl, 5.8 mM KH2PO4, 8 mM Na2HPO4, 20 mM HEPES (free acid), 5 mM iodoacetamide, 1.6 mM EDTA, pH 7.4); PMSF, dissolved in methanol to a final concentration of 100 μM, was added and the suspension was homogenized by Polytron. The homogenate was centrifuged at 18,000×g for 20 min at 4° C. and the resulting pellet was re-suspended in 20 volumes of ice-cold water. After 60 min incubation on ice, a new pellet was collected by centrifugation at 18,000×g for 20 min at 4° C. The final pellet was re-suspended in 10 volumes of buffer and stored at −20° C.
as §1, §2, §3

Row | Structure (SMILES) | Ki
27 | O=C(C1CC=CC1)N1C[C@@H]2CN[C@@H](C2)C1 | 330 nM
28 | O=C(C1CC=CC1)N1CC2CNCC1C2 (centres unmarked) | 120 nM

Same assay, conditions: read-out: Rat α4β2 Ki

Row | Structure (SMILES) | Ki
29 | O=C(C1CC=CC1)N1CC2CNC(C2)C1 (centres unmarked) | 11 nM
30 | O=C(C1CC1)N1CC2CNC(C2)C1 (centres unmarked) | 1.3 nM
31 | O=C(N1CC2CNC(C2)C1)C(F)(F)F (centres unmarked) | 2400 nM
32 | O=C(C1CC1)N1C[C@@H]2CN[C@@H](C2)C1 | 14 nM
33 | O=C(C1CC1)N1C[C@H]2CN[C@H](C2)C1 | 0.5 nM
34 | O=C(C1CC=CC1)N1C[C@H]2CN[C@H](C2)C1 | 5.5 nM
35 | O=C(C1CCC1)N1C[C@@H]2CN[C@@H](C2)C1 | 14 nM
36 | O=C(C1CCC1)N1C[C@H]2CN[C@H](C2)C1 | 2.2 nM
37 | CCC(=O)N1C[C@@H]2CN[C@@H](C2)C1 | 30 nM
38 | CCCC(=O)N1C[C@@H]2CN[C@@H](C2)C1 | 18 nM
39 | CC(C)C(=O)N1C[C@@H]2CN[C@@H](C2)C1 | 380 nM
40 | O=C(C1CCCC1)N1C[C@@H]2CN[C@@H](C2)C1 | 130 nM
41 | CC1CC1C(=O)N1C[C@@H]2CN[C@@H](C2)C1 (some centres unmarked) | 4.8 nM
42 | O=C(C1CC1(F)F)N1C[C@@H]2CN[C@@H](C2)C1 (some centres unmarked) | 11 nM
43 | CCOC(=O)N1C[C@H]2CN[C@H](C2)C1 | 11 nM
44 | O=C(C1C[C@@H]1F)N1CC2CNC(C2)C1 (some centres unmarked) | 22 nM
45 | O=C(C1C[C@H]1F)N1CC2CNC(C2)C1 (some centres unmarked) | 21 nM
46 | O=C(CCF)N1C[C@@H]2CN[C@@H](C2)C1 | 31 nM
47 | CCOC(=O)N1C[C@@H]2CNC[C@H]1C2 | 32 nM
48 | O=C([C@H]1C[C@H]1F)N1C[C@H]2CNC[C@@H]1C2 | 170 nM

Biological target: T3, rat α7 nAChR subtype (Rattus norvegicus, UniProt Q05941)
T3 construct: Preparation of membranes from rat hippocampus; from tissue; host or cells: rat hippocampus membranes
T3 sequence (Q05941 23-502): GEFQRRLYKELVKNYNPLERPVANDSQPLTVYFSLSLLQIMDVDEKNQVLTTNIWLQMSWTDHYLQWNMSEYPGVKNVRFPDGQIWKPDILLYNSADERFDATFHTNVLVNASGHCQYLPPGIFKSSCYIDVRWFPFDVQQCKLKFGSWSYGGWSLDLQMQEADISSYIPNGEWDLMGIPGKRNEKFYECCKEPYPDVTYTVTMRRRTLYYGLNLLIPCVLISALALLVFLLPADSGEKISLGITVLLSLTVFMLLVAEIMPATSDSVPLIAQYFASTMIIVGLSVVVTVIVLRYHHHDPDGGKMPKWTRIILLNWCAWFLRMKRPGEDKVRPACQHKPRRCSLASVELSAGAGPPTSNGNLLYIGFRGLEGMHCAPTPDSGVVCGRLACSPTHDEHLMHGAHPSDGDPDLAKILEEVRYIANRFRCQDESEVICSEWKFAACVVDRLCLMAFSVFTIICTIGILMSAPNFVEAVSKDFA
Experiment: Radioligand binding ([3H]MLA) at α7 nAChR, rat hippocampus membranes
Details: not given
Description: as §4, with “from rat hippocampus: Rats (female,” for “from rat cortex: Rats (female,”, “70% CO2, then decapitated.” for “70% CO2, and then decapitated.”, “platform. The hippocampus was removed” for “platform. The cerebral cortex was removed”, “placed in 10 volumes (weight:volume)” for “placed in 20 volumes (weight:volume)”, “and the tissue suspension was” for “and the suspension was”, “re-suspended in 10 volumes of” for “re-suspended in 20 volumes of”
On the day of the assay, tissue was thawed, centrifuged at 18,000×g for 20 min, and then re-suspended in ice-cold PBS (Dulbecco's Phosphate Buffered Saline, 138 mM NaCl, 2.67 mM KCl, 1.47 mM KH2PO4, 8.1 mM Na2HPO4, 0.9 mM CaCl2, 0.5 mM MgCl2, Invitrogen/Gibco, pH 7.4) to a final concentration of approximately 2 mg protein/mL. Protein was determined by the method of Lowry et al., J. Biol. Chem. 193: 265 (1951), herein incorporated by reference, using bovine serum albumin as the standard.
Assay: The binding of [^3H]MLA was measured using a modification of the methods of Davies et al., Neuropharmacol. 38: 679 (1999), herein incorporated by reference. [^3H]MLA (Specific Activity=25-35 Ci/mmol) was obtained from Tocris. The binding of [^3H]MLA was determined using a 2 h incubation at 21° C. Incubations were conducted in 48-well micro-titre plates and contained about 200 μg of protein per well in a final incubation volume of 300 μL. The incubation buffer was PBS and the final concentration of [^3H]MLA was 5 nM. The binding reaction was terminated by filtration of the protein containing bound ligand onto glass fiber filters (GF/B, Brandel) using a Brandel Tissue Harvester at room temperature. Filters were soaked in de-ionized water containing 0.33% polyethyleneimine to reduce non-specific binding. Each filter was washed with PBS (3×1 mL) at room temperature. Non-specific binding was determined by inclusion of 50 μM non-radioactive MLA in selected wells.
The inhibition of [^3H]MLA binding by test compounds was determined by including seven different concentrations of the test compound in selected wells. Each concentration was replicated in triplicate. IC50 values were estimated as the concentration of compound that inhibited 50 percent of specific [^3H]MLA binding. Inhibition constants (Ki values), reported in nM, were calculated from the IC50 values using the method of Cheng et al., Biochem. Pharmacol. 22: 3099-3108 (1973), herein incorporated by reference.

Row | Structure (SMILES) | Ki
49 | O=C(C1CC=CC1)N1CC2CNC(C2)C1 (centres unmarked) | 64 nM
50 | O=C(N1CC2CNC(C2)C1)C(F)(F)F (centres unmarked) | > 10000 nM
51 | O=C(C1CC1)N1C[C@@H]2CN[C@@H](C2)C1 | 98 nM
52 | O=C(C1CC=CC1)N1C[C@@H]2CN[C@@H](C2)C1 | 29 nM
53 | O=C(C1CC=CC1)N1C[C@H]2CN[C@H](C2)C1 | 65 nM
54 | O=C(C1CCC1)N1C[C@@H]2CN[C@@H](C2)C1 | 370 nM
55 | O=C(C1CCC1)N1C[C@H]2CN[C@H](C2)C1 | 440 nM
56 | CCC(=O)N1C[C@@H]2CN[C@@H](C2)C1 | 2000 nM
57 | CCCC(=O)N1C[C@@H]2CN[C@@H](C2)C1 | 160 nM
58 | CC(C)C(=O)N1C[C@@H]2CN[C@@H](C2)C1 | 220 nM
59 | CC1CC1C(=O)N1C[C@@H]2CN[C@@H](C2)C1 (some centres unmarked) | 460 nM
60 | CCOC(=O)N1C[C@H]2CN[C@H](C2)C1 | 4200 nM
61 | O=C(C1C[C@@H]1F)N1CC2CNC(C2)C1 (some centres unmarked) | 260 nM
62 | O=C(C1C[C@H]1F)N1CC2CNC(C2)C1 (some centres unmarked) | 630 nM
63 | CCOC(=O)N1C[C@@H]2CNC[C@H]1C2 | > 10000 nM
64 | O=C(C1CC1)C1N[C@H]2CNC[C@@H]1C2 (some centres unmarked) | 1300 nM
65 | O=C([C@H]1C[C@H]1F)N1C[C@H]2CNC[C@@H]1C2 | 1300 nM
66 | O=C(C1CCC1)N1C[C@H]2CNC[C@@H]1C2 | 1500 nM

Same assay, conditions: rat hippocampus membranes, 5 nM [3H]MLA; read-out: Rat α7 Ki

Row | Structure (SMILES) | Ki
67 | O=C(C1CC1)N1CC2CNC(C2)C1 (centres unmarked) | 290 nM
68 | O=C(C1CC1)N1C[C@H]2CN[C@H](C2)C1 | 190 nM
69 | O=C(C1CCCC1)N1C[C@@H]2CN[C@@H](C2)C1 | 130 nM
70 | O=C(C1CC1(F)F)N1C[C@@H]2CN[C@@H](C2)C1 (some centres unmarked) | 670 nM
71 | O=C(CCF)N1C[C@@H]2CN[C@@H](C2)C1 | 950 nM
72 | O=C(C1CC=CC1)N1CC2CNCC1C2 (centres unmarked) | 160 nM
73 | CC(C)C(=O)N1C[C@H]2CNC[C@@H]1C2 | 890 nM
74 | O=C(CCF)N1C[C@H]2CNC[C@@H]1C2 | 2300 nM
